In patent US20250232831A1, “METHOD FOR PREDICTING CELL MEMBRANE PERMEABILITY OF CYCLIC PEPTIDE” (FUJIFILM Corporation, priority 2022, published 2025):
Where two headings read alike, the source gives them in different places. Where a SMILES comes first, the peptide text is derived from it. Bridges are numbered along the chain shown (N, C = ends). [ ]: non-standard residue; d: D form. The star is where a group is joined. NMeL = CN[C@@H](CC(C)C)C(=O)O; hCys = N[C@@H](CCS)C(=O)O; NMeA = CN[C@@H](C)C(=O)O; Piperidide = C1CCN(*)CC1; dNMeA = CN[C@H](C)C(=O)O

Assay: Evaluation of cell membrane permeability (permeation test, permeability coefficient Papp)
Assay type: in vitro ADME
Conditions: dog
Experimental: 300 μL of MDCK II cells (ECACC standard cell line) at a density of 1.0×10^6 cells/mL were seeded in an insert (dedicated for a 24-well plate, pore diameter: 3.0 μm, manufactured by Corning Incorporated), and cultured at 37° C. in a 5% CO2 environment. After 3 days, the electric resistance value of the cell layer (measuring device: Millicell (registered trademark) ERS-2 (manufactured by Millipore Corporation), electrode: ENDOHM-6 (manufactured by WPI, Inc.)) was measured, and it was confirmed that the cell layer had high barrier properties (>100 (2 Ω·cm^2).
The insert was washed by being immersed in a Hank's Balanced Salt Solution (HBSS) (phenol red-free), 200 μL of a sample prepared at 10 μmol/L/HBSS was added thereto, and the insert was allowed to stand in a low-adsorption 24-well plate containing 900 μL of HBSS (37° C., 5% CO2). After 2 hours, each liquid of the upper layer (apical) and the lower layer (basal) of the insert (10 μL for apical and 500 μL for basal) was recovered. After testing, no leakage was confirmed with Lucifer Yellow, which is a non-permeable fluorescent dye.
The device used was LC/MS/MS (triple quadrupole type). […]
Based on the calculation expression shown in the following expression, a permeability coefficient Papp, which represents the membrane permeability, was calculated from each quantitative value. […]

Row | Papp A→B at 2 h, 10 μmol/L (MDCK II cells, 10 μmol/L sample in HBSS, 2 hours, 37° C., apical to basal, read-out: Cell membrane permeability Papp) [×10⁻⁶ cm/s] | Structure (SMILES) | Papp A→B at 2 h, 10 μmol/L (MDCK) [×10⁻⁶ cm/s]
1 |  | CC(C)C[C@@H]1NC(=O)[C@H](C)N(C)C(=O)[C@@H](C)N(C)C(=O)[C@H](CC(C)C)N(C)C(=O)[C@H](CC(C)C)N(C)C(=O)[C@H](CC(C)C)NC(=O)[C@H](CC(C)C)N(C)C(=O)CSCC[C@@H](C(=O)N2CCCCC2)NC(=O)[C@H](C)N(C)C(=O)[C@H](C)N(C)C1=O [Compound 1] ({CH2CO}-[NMeL]L[NMeL][NMeL][dNMeA][NMeA]L[NMeA][NMeA][hCys]-Piperidide; thioether N-10) | 1.1
2 | 0.04 | CC(C)C[C@@H]1NC(=O)[C@H](CC(C)C)N(C)C(=O)CSCC[C@@H](C(=O)N2CCCCC2)NC(=O)[C@H](C)N(C)C(=O)[C@@H]2CCCN2C(=O)[C@H](CC(C)C)N(C)C(=O)[C@H](C)NC(=O)[C@H](C)N(C)C(=O)[C@H](CC(C)C)N(C)C(=O)[C@H](CC(C)C)N(C)C1=O [Compound 2] ({CH2CO}-[NMeL]L[NMeL][NMeL][NMeA]A[NMeL]P[NMeA][hCys]-Piperidide; thioether N-10) | 
